Assay results as given in patent US8952024B2, “Herbicidal pyrimidone derivatives” (E I du Pont de Nemours and Company, priority 2009, dated 2015).

Columns and labels:
Assay in all cases: Test B pre-/postemergence plant response
Assay type in all cases: in vivo
[1] = system: bermudagrass (Cynodon dactylon)
Summary of the method: (§1)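 Greenhouse herbicide screen. Pre- and postemergence (1- to 4-leaf) spray of compound in solvent/surfactant mixture; loam–sand soil for pre, peat/vermiculite medium for post. Visual control rating 0–100 at 13 to 15 days after treatment.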

[2] = system: goosegrass (Eleusine indica)
Summary of the method: as §1

[3] = system: green foxtail (Setaria viridis)
Summary of the method: as §1

[4] = system: johnsongrass (Sorghum halepense)
Summary of the method: as §1

[5] = system: kochia (Kochia scoparia)
Summary of the method: as §1

[6] = system: lambsquarters (Chenopodium album)
Summary of the method: as §1

[7] = system: large crabgrass (Digitaria sanguinalis)
Summary of the method: as §1

[8] = system: ragweed (common ragweed, Ambrosia elatior); details: for Plant response rating, Ragweed: Postemergence
Summary of the method: as §1

[9] = system: soybean (Glycine max); details: for Plant response rating, Soybean: Postemergence
Summary of the method: as §1

[10] = system: velvetleaf (Abutilon theophrasti); details: for Plant response rating, Velvetleaf: Postemergence
Summary of the method: as §1

[11] = system: wheat (Triticum aestivum); details: for Plant response rating, Wheat: Postemergence
Summary of the method: as §1

[12] = system: woolly cupgrass (Eriochloa villosa)
Summary of the method: as §1

[13] = system: yellow nutsedge (Cyperus esculentus)
Summary of the method: as §1

[14] = 31 g ai/ha, postemergence, scale 0 to 100, 0 is no effect, 100 is complete control
[15] = 62 g ai/ha, postemergence, 0 is no effect, 100 is complete control, 13 to 15 days
[16] = Postemergence, 125 g ai/ha, scale 0 to 100 (0 no effect, 100 complete control)
[17] = Postemergence, 250 g ai/ha, scale 0 to 100 (0 no effect, 100 complete control)
[18] = 125 g ai/ha, scale 0 to 100 (0 no effect, 100 complete control)
[19] = 250 g ai/ha, scale 0 to 100 (0 no effect, 100 complete control)
[20] = Postemergence, 31 g ai/ha, 0 to 100 scale (0 no effect, 100 complete control)
[21] = Postemergence, 62 g ai/ha, scale 0 to 100 (0 no effect, 100 complete control)
[22] = Postemergence, 250 g ai/ha, scale 0 to 100 (0 no effect, 100 complete control), 13 to 15 days
[23] = 31 g ai/ha, 0 to 100 scale (0 no effect, 100 complete control)
[24] = 62 g ai/ha, scale 0 to 100 (0 no effect, 100 complete control)
[25] = 250 g ai/ha, scale 0 to 100 (0 no effect, 100 complete control), 13 to 15 days

COCCCn1c(-c2cccc(C)c2)ncc(C(=O)C2=C(O)CCCC2=O)c1=O [Compound 118, 5-[(2-hydroxy-6-oxo-1-cyclohexane-1-yl)carbonyl]-3-(3-methoxypropyl)-2-(3-methylphenyl)-4(3H)-pyrimidinone]
Plant response rating, Bermudagrass [1, 14]: 75 | Bermudagrass plant response rating (0 to 100 scale) [1, 15]: 95 | Plant response rating, Bermudagrass [1, 16]: 98 | Plant response rating, Bermudagrass [1, 17]: 98 | Plant response rating, Goosegrass [2, 14]: 55 | Goosegrass plant response rating (0 to 100 scale) [2, 15]: 65 | Plant response rating, Goosegrass [2, 16]: 80 | Plant response rating, Goosegrass [2, 17]: 90 | Plant response rating, Foxtail, Green [3, 14]: 50 | Foxtail, Green plant response rating (0 to 100 scale) [3, 15]: 85 | Plant response rating, Foxtail, Green [3, 16]: 95 | Plant response rating, Foxtail, Green [3, 17]: 95 | Plant response rating, Johnsongrass [4, 14]: 10 | Johnsongrass plant response rating (0 to 100 scale) [4, 15]: 10 | Plant response rating, Johnsongrass [4, 16]: 20 | Plant response rating, Johnsongrass [4, 17]: 35 | Plant response rating, Kochia [5, 14]: 45 | Kochia plant response rating (0 to 100 scale) [5, 15]: 65 | Plant response rating, Kochia [5, 16]: 70 | Plant response rating, Kochia [5, 17]: 98 | Plant response rating, Lambsquarters [6, 14]: 85 | Lambsquarters plant response rating (0 to 100 scale) [6, 15]: 98 | Plant response rating, Lambsquarters [6, 16]: 100 | Plant response rating, Lambsquarters [6, 17]: 100 | Plant response rating, Crabgrass, Large [7, 14]: 70 | Crabgrass, Large plant response rating (0 to 100 scale) [7, 15]: 75 | Plant response rating, Crabgrass, Large [7, 16]: 80 | Plant response rating, Crabgrass, Large [7, 17]: 95 | Ragweed plant response rating (0 to 100 scale) [8, 15]: 85 | Plant response rating, Ragweed [8, 18]: 95 | Plant response rating, Ragweed [8, 19]: 98 | Soybean plant response rating (0 to 100 scale) [9, 15]: 90 | Plant response rating, Soybean [9, 18]: 95 | Plant response rating, Soybean [9, 19]: 100 | Velvetleaf plant response rating (0 to 100 scale) [10, 15]: 75 | Plant response rating, Velvetleaf [10, 18]: 98 | Plant response rating, Velvetleaf [10, 19]: 100 | Wheat plant response rating (0 to 100 scale) [11, 15]: 5 | Plant response rating, Wheat [11, 18]: 5 | Plant response rating, Cupgrass, Woolly [12, 14]: 65 | Cupgrass, Woolly plant response rating (0 to 100 scale) [12, 15]: 70 | Plant response rating, Cupgrass, Woolly [12, 16]: 75 | Plant response rating, Cupgrass, Woolly [12, 17]: 95 | Plant response rating, Nutsedge, Yellow [13, 14]: 35 | Nutsedge, Yellow plant response rating (0 to 100 scale) [13, 15]: 45 | Plant response rating, Nutsedge, Yellow [13, 16]: 65 | Plant response rating, Nutsedge, Yellow [13, 17]: 65

O=C(C1=C(O)C2CCC(C2)C1=O)c1cnc(-c2ccsc2)n(CC2CCCO2)c1=O (centres unmarked) [Compound 229]
Plant response rating, Bermudagrass [1, 20]: 75 | Plant response rating, Bermudagrass [1, 21]: 80 | Plant response rating, Bermudagrass [1, 16]: 85 | Plant response rating, Bermudagrass [1, 22]: 90 | Plant response rating, Goosegrass [2, 20]: 70 | Plant response rating, Goosegrass [2, 21]: 70 | Plant response rating, Goosegrass [2, 16]: 70 | Plant response rating, Goosegrass [2, 22]: 80 | Plant response rating, Foxtail, Green [3, 20]: 40 | Plant response rating, Foxtail, Green [3, 21]: 80 | Plant response rating, Foxtail, Green [3, 16]: 80 | Plant response rating, Foxtail, Green [3, 22]: 95 | Plant response rating, Johnsongrass [4, 20]: 70 | Plant response rating, Johnsongrass [4, 21]: 100 | Plant response rating, Johnsongrass [4, 16]: 100 | Plant response rating, Johnsongrass [4, 22]: 100 | Plant response rating, Kochia [5, 20]: 55 | Plant response rating, Kochia [5, 21]: 70 | Plant response rating, Kochia [5, 16]: 80 | Plant response rating, Kochia [5, 22]: 100 | Plant response rating, Lambsquarters [6, 20]: 85 | Plant response rating, Lambsquarters [6, 21]: 95 | Plant response rating, Lambsquarters [6, 16]: 95 | Plant response rating, Lambsquarters [6, 22]: 98 | Plant response rating, Crabgrass, Large [7, 20]: 80 | Plant response rating, Crabgrass, Large [7, 21]: 90 | Plant response rating, Crabgrass, Large [7, 16]: 90 | Plant response rating, Crabgrass, Large [7, 22]: 90 | Plant response rating, Ragweed [8, 23]: 80 | Plant response rating, Ragweed [8, 24]: 80 | Plant response rating, Ragweed [8, 25]: 95 | Plant response rating, Soybean [9, 23]: 95 | Plant response rating, Soybean [9, 24]: 98 | Plant response rating, Soybean [9, 25]: 98 | Plant response rating, Velvetleaf [10, 23]: 75 | Plant response rating, Velvetleaf [10, 24]: 75 | Plant response rating, Velvetleaf [10, 25]: 85 | Plant response rating, Wheat [11, 23]: 0 | Plant response rating, Wheat [11, 24]: 0 | Plant response rating, Wheat [11, 25]: 35 | Plant response rating, Cupgrass, Woolly [12, 20]: 70 | Plant response rating, Cupgrass, Woolly [12, 21]: 75 | Plant response rating, Cupgrass, Woolly [12, 16]: 80 | Plant response rating, Cupgrass, Woolly [12, 22]: 90 | Plant response rating, Nutsedge, Yellow [13, 20]: 0 | Plant response rating, Nutsedge, Yellow [13, 21]: 20 | Plant response rating, Nutsedge, Yellow [13, 16]: 40 | Plant response rating, Nutsedge, Yellow [13, 22]: 55
